Read-outs that look alike come from different tables or passages of the source.
Tests used:
A. castellanii Neff [1] = assay: Anti-Acanthamoeba activity on trophozoites, alamarBlue colorimetric assay; assay type: cell-based, Acanthamoeba castellanii Neff; settings: for IC50: 96 h, read-out: IC50 A. castellanii Neff
Experimental: (§1) The amoeba strain used in this study was the type strain: Acanthamoeba castellanii Neff (ATCC 30010) which was axenically grown in PYG medium (0.75% (w/v) proteose peptone, 0.75% (w/v) yeast extract and 1.5% (w/v) glucose) containing 40 µg/mL of gentamicin (Biochrom AG, Cultek, Granollers, Barcelona, Spain). The murine macrophages J774A.1 (ATCC TIB-67) cell line was cultured in RPMI 1640 medium supplemented with 10% fetal bovine serum at 37 °C and 5% CO2 atmosphere, was used for the cytotoxicity assays. Successively, the evaluated molecules were also tested against two clinical isolates, Acanthamoeba griffini, genotype T3 obtained in a previous study, and Acanthamoeba polyphaga genotype T4 ATCC 30461, both axenically grown in the same medium as A. castellanii Neff.
(§2) To evaluate the biological activity of the fractions and molecules, the anti-Acanthamoeba experiments were carried out using the alamarBlue® colorimetric assay, as it was previously described. Briefly, Acanthamoeba strain was seeded in triplicate on 96-well microtiter plates (ThermoFisher™, Waltham, MA, USA) with 50 µL from a stock solution of 5 × 10^4 cells/mL and 50 µL of serial dilutions of the evaluated molecules in each well (1% DMSO was used to dissolve the highest dose of the compounds with no effects on the parasites). Two reference treatments such as chlorhexidine (chlorhexidine digluconate; Alfa Aesar) and voriconazole (Sigma), were used as positive controls. Finally, the alamarBlue® Reagent (Life Technologies, Madrid, Spain) was placed into each well at an amount equal to 10% of the final volume. Plates were incubated for 96 h at 26 °C with a slight agitation until their measurement in the EnSpire® Multimode Plate Reader (Perkin Elmer, Madrid, Spain) using fluorescence, at 570/585 nm.
(§3) The percentage of the growth inhibition, 50% inhibitory concentration (IC50 or CC50), was calculated by nonlinear regression analysis with 95% confidence limits using Sigma Plot 12.0 statistical analysis software (Systat Software). All experiments were performed three times, and the mean values were also calculated. A paired two-tailed t-test was used for analysis of the data. Values of p < 0.05 were considered significant.

A. griffini = assay: as above; assay type: cell-based; settings: 96 h, read-out: IC50 A. griffini
Experimental: as §1, §2, §3

A. polyphaga = assay: as above; assay type: cell-based; settings: 96 h, read-out: IC50 A. polyphaga
Experimental: as §1, §2, §3

protein kinase A (PKA) = settings: cited from earlier work
[2] = Cytotoxicity test, alamarBlue assay; assay type: cell-based, murine; settings: mouse, 37 °C, mean ± SD
Experimental: as §1
The cytotoxicity effect of active molecules was evaluated in murine macrophage J774A.1 cell line (ATCC # TIB-67) following the same protocol described above for Acanthamoeba trophozoites. Then, plates containing alamarBlue® were incubated for 24 h at 37 °C in presence of CO2 at 5%.
as §3

protein kinase C (PKC) = settings: cited from earlier work
[3] = biological target: cyclin-dependent kinase 4 (CDK4); set-up: method as in PMID 19132059, PMID 14552791; settings: cited from earlier work
[4] = biological target: calcium/calmodulin-dependent protein kinase II (CaMKII); set-up: method as in PMID 19132059, PMID 14552791; settings: cited from earlier work
[5] = system: A. castellanii Neff cysts; assay: In vitro activity against cysts (cysticidal assay, alamarBlue); assay type: cell-based, Acanthamoeba castellanii Neff; settings: mature cysts
Experimental: On the other side, cysticidal activity of 7OSTS (2) was determined also using the alamarBlue™ reagent and confirmed visually by inverted microscopy. Cysts of A. castellaniii Neff were prepared as previously described. First of all, trophozoites were transferred from PYG medium based cultures (trophozoite medium) to Neff’s encystment medium (NEM; 0.1 M KCl, 8 mM MgSO4·7H2O, 0.4 mM CaCl2·2H2O, 1 mM NaHCO3, 20 mM ammediol [2-amino-2-methyl-1,3-propanediol; Sigma Aldrich Chemistry Ltd., Madrid, Spain], pH 8.8, at 25 °C) and were cultured in this medium with gently shaking for a week in order to obtain mature cysts. In order to carry out the cysticidal assay, mature cysts were harvested and washed twice with PYG medium. Serial dilutions of 7OSTS (2) were made in PYG and place onto sterile 96-well microtiter plates. 5·10^4 mature cysts of Acanthamoeba/mL were added to the wells with 50 µL of 7OSTS (2) dilutions. After 7 days of incubation, the plate was centrifuged at 3000 rpm for 10 min. The supernatant was removed and replaced with 100 µL of fresh PYG medium in each well. Finally, 10 μL of the alamarBlue® Reagent was placed into each well. The plates were then incubated for 144 h at 28 °C and the emitted fluorescence was measured with the EnSpire® Multimode Plate Reader (Perkin Elmer, Madrid, Spain) using fluorescence, at 570/585 nm. […]

A. castellanii Neff [6] = assay: Double-stain assay (Hoechst 33342/PI) for programmed cell death determination; assay type: cell-based, Acanthamoeba castellanii Neff; settings: IC90 concentration, 24 h
Experimental: 10^5 amoebas/well were incubated in a 24-well plate with the previously calculated IC90 of 7OSTS for 24 h. A double-stain apoptosis detection kit (Hoechst 33342/PI) (ThermoFisher™, Waltham, MA, USA) was used to carry out the experiment following the manufacturer’s recommendations. The images were obtained using the EVOS FL Cell Imaging System AMF4300, Life Technologies, USA. The double-staining pattern allows the identification of live cells with low level of fluorescence, cells undergoing PCD with a higher level of blue fluorescence (as chromatin condenses), and dead cells which will show low-blue and high-red fluorescence (as the propidium iodide stain enters the nucleus of dead cells).

A. castellanii Neff [7] = assay: Analysis of mitochondrial membrane potential (JC-1); assay type: cell-based, Acanthamoeba castellanii Neff; settings: IC90, 24 h
Experimental: The use of JC-1 mitochondrial membrane potential detection kit (Cayman Chemical) it is possible to detect the collapse of an electrochemical gradient across the mitochondrial membrane during apoptosis process. 10^5 amoebas/mL were treated with IC90 of 7OSTS (2) for 24 h, the cells were centrifuged (1000 rpm × 10 min) and suspended in JC-1 buffer. Images were taken on the EVOS FL inverted microscope. The staining pattern allows the identification of two groups in a cellular population: live cells will show only red fluorescence, but cells with low mitochondrial potential (undergoing PCD) will show a higher level of green fluorescence.

A. castellanii Neff [8] = assay: Measurement of ATP levels (CellTiter-Glo); assay type: cell-based, Acanthamoeba castellanii Neff; settings: IC90, 24 h
Experimental: An appropriate level of ATP is necessary to maintain the cell metabolism. The effect of the drug on the ATP production was evaluated by incubating (10^5) of cells/mL with the previously calculated IC90 of 7OSTS (2) using the CellTiter-Glo Luminescent Cell Viability Assay. The luminescence of each assay was measured on the EnSpire®.

A. castellanii Neff [9] = assay: Plasma membrane permeability (SYTOX Green); assay type: cell-based, Acanthamoeba castellanii Neff; settings: IC90, 24 h
Experimental: In order to detect alterations of the membrane permeability in treated cells, the SYTOX Green (ThermoFischer^TM) assay was performed. Briefly, 10^5 trophozoite were washed and incubated in saline solution with SYTOX Green at a final concentration of 1 μM for 15 min in darkness. After that, IC90 of 7OSTS (2) was added to the cells and incubated for 24 h. Cells were observed and pictures were taken on the EVOS FL inverted microscope.

[10] = system: human lung, colon, and nasopharyngeal carcinoma cell lines; set-up: method as in PMID 3112080; settings: read-out: IC50 cytotoxic activity; cited from earlier work
[11] = read-out: Macrophage J774A.1 CC50

SMILES | IC50 (A. castellanii Neff [1]; trophozoites, 26 °C, mean ± SD) [µM] | IC50 (A. griffini; trophozoites, 26 °C, mean ± SD) [µM] | IC50 (A. polyphaga; trophozoites, 26 °C, mean ± SD) [µM] | CC50 at 24 h ([2]; J774A.1 macrophage cells) [µM] | other results
O=C1NCc2c1c1c3ccccc3[nH]c1c1[nH]c3ccccc3c21 [K252c (6), K252c] | 6.17 ± 0.73 | 2.25 ± 0.32 | 5.59 ± 0.34 |  | IC50 (protein kinase A (PKA)): 25.7 µM
O=C1NC(=O)c2c1c1c3ccccc3[nH]c1c1[nH]c3ccccc3c21 [Arcyriaflavin A (7), arcyriaflavin A] | 7.32 ± 0.45 | 7.53 ± 1.11 | 7.59 ± 0.73 |  | IC50 (protein kinase C (PKC)): > 100 µM; IC50 (protein kinase A (PKA)): > 2 µM; IC50 [3]: 0.14 µM; IC50 [4]: 0.025 µM
CNC1CC2OC(C)(C1OC)n1c3ccccc3c3c4c(c5c6ccccc6n2c5c31)C(=O)NC4=O (centres unmarked) [7OSTS (2), 7-oxostaurosporine] |  |  |  |  | IC50 (A. castellanii Neff [1]): 0.83 ± 0.09 µM; IC90 (A. castellanii Neff [1]; read-out: IC90 concentration): 2.91 ± 0.67 µM; IC50 (A. griffini): 0.96 ± 0.19 µM; IC50 (A. polyphaga): 5.51 ± 0.09 µM; CC50 at 24 h [2, 11]: 5.2 ± 1.75 µM; IC50 ([5]; Acanthamoeba castellanii): 0.92 ± 0.33 µM; Cyst viability ([5]; incubation up to 144 h): non-viable cysts were observed; Chromatin condensation (A. castellanii Neff [6]): induces chromatin condensation; Mitochondrial membrane potential (A. castellanii Neff [7]): decrease of the mitochondrial membrane potential; ATP level compared to the negative control (A. castellanii Neff [8]): 45%; Plasma membrane permeability (A. castellanii Neff [9]): plasmatic membrane damage
CN[C@@H]1C[C@H]2O[C@@](C)([C@@H]1OC)n1c3ccccc3c3c4c(c5c6ccccc6n2c5c31)C(=O)NC4 [STS (1), staurosporine] |  |  |  |  | CC50 at 24 h [2, 11]: 8.74 ± 0.72 µM

The next lines start with results.

IC50 (A. castellanii Neff [1]; trophozoites, 26 °C, mean ± SD) [µM] | IC50 (A. griffini; trophozoites, 26 °C, mean ± SD) [µM] | IC50 (A. polyphaga; trophozoites, 26 °C, mean ± SD) [µM] | SMILES | CC50 at 24 h ([2]; J774A.1 macrophage cells) [µM] | other results
7.53 ± 0.73 | 23.9 ± 0.55 | > 40 | COC1C(=O)CC2OC1(C)n1c3ccccc3c3c4c(c5c6ccccc6n2c5c31)C(=O)NC4 (centres unmarked) [4’D4’OSTS (3), 4′-demethylamino-4′-oxostaurosporine] | > 40 | 
5.37 ± 0.23 | 5.02 ± 0.18 | 7.47 ± 0.61 | CO[C@H]1[C@H](O)[C@@H](O)[C@H](n2c3c(Cl)cccc3c3c4c(c5c6cccc(Cl)c6[nH]c5c32)C(=O)NC4=O)O[C@@H]1CO [Rebeccamycin (5), rebeccamycin] |  | IC50 [10]: 0.4 to 98 µM
6.83 ± 2.6 | 14.5 ± 0.38 | > 40 | COC1=C(C)O[C@@H]2C[C@@]1(OC)n1c3ccccc3c3c4c(c5c6ccccc6n2c5c31)C(=O)NC4 [ICZ B (4), streptocarbazole B] | > 40 | 
 |  | 4.76 ± 0.08 | [H]/N=C(\N/C(=N/[H])NCCCCCCNC(=N)NC(=N)Nc1ccc(Cl)cc1)Nc1ccc(Cl)cc1 [Chlorhexidine, chlorhexidine] | 7.4 ± 0.39 | 
0.94 ± 0.29 | 0.1 ± 0.02 | 10.1 ± 2.21 | C[C@@H](c1ncncc1F)[C@](O)(Cn1cncn1)c1ccc(F)cc1F [Voriconazole, voriconazole] | 7.56 ± 0.77 | 
